# Measured values: ChEMBL document CHEMBL1921721, “Benzenepolycarboxylic acids with potential anti-hemorrhagic properties and structure-activity relationships” (Bioorg Med Chem, 2011)
# Key:
# [1] = test system: Mus musculus; experiment: Antihemorrhagic activity in ddY mouse assessed as inhibition of Protobothrops flavoviridis venom-induced hemorrhagic lesion formation compound incubated with venom for 10 mins and administered subcutaneously measured after 24 hrs; type: functional, organism-based
# [2] = Dissociation constant, pKa of the compound; type: physicochemical
# [3] = test system: Mus musculus; experiment: Ratio of caffeic acid IC50 to compound IC50 for antihemorrhagic activity in ddY mouse assessed as inhibition of Protobothrops flavoviridis venom-induced hemorrhagic lesion formation compound incubated with venom for 10 mins and administered subcutaneously measured after 24 hrs; type: functional
# [4] = test system: Mus musculus; experiment: Ratio of benzoic acid IC50 to compound IC50 for antihemorrhagic activity in ddY mouse assessed as inhibition of Protobothrops flavoviridis venom-induced hemorrhagic lesion formation compound incubated with venom for 10 mins and administered subcutaneously measured after 24 hrs; type: functional
SMILES,IC50 [1] [nM],pKa [2],Ratio IC50 [3],Ratio IC50 [4]
O=C(O)/C=C/C=C/C(=O)O,110,–,–,–
O=C(O)c1ccccc1 [BENZOIC ACID],200,–,–,–
O=C(O)c1ccccc1[N+](=O)[O-],260,–,–,–
O=C(O)c1c(C(=O)O)c(C(=O)O)c(C(=O)O)c(C(=O)O)c1C(=O)O [MELLITIC ACID],43,1.15,–,–
O=C(O)c1ccccc1Cl,250,2.97,–,–
O=C(O)c1ccc([N+](=O)[O-])cc1 [4-NITROBENZOIC ACID],240,3.42,–,–
O=C(O)c1cc(C(=O)O)c(C(=O)O)c(C(=O)O)c1C(=O)O [BENZENEPENTACARBOXYLIC ACID],43,1.93,–,–
Cc1ccc(C(=O)O)cc1 [4-METHYLBENZOIC ACID],220,4.37,–,–
O=C(O)/C=C/c1ccc(O)c(O)c1 [CAFFEIC ACID],–,4.58,–,–
O=C(O)c1cc(C(=O)O)c(C(=O)O)cc1C(=O)O [PYROMELLITIC ACID],35,1.87,–,–
O=C(O)c1ccccc1C(=O)O [PHTHALIC ACID],100,–,2,2
O=C(O)c1cccc(C(=O)O)c1 [ISOPHTHALIC ACID],100,–,2,2
O=C(O)c1ccccc1O [SALICYLIC ACID],200,–,–,–
O=C(O)c1cc(C(=O)O)cc(C(=O)O)c1,67,2.98,–,–
O=C(O)c1ccc(C(=O)O)c(C(=O)O)c1,62,2.84,–,–
O=C(O)c1ccc(C(=O)O)cc1 [TEREPHTHALIC ACID],90,–,2,2
O=C(O)c1cccc(O)c1 [3-HYDROXYBENZOIC ACID],200,4.08,–,–
O=C(O)c1ccc(O)cc1 [PARABEN],200,4.57,–,–
